Assay results reported in PMC7936488, “An efficient system for intestinal on-site butyrate production using novel microbiome-derived esterases” (Journal of Biological Engineering, 2021).

Tests used:
LL_Tbe = biological target: T1, LL_Tbe (Lactococcus lactis, UniProt Q9L9X0); assay: p-nitrophenol release at […] nm, E. coli tEc cells expressing the gene vs empty vector; type: cell-based; details: whole-cell culture aliquot, 5 min
T1 construct: gene estA; gene in pBAD24 under tbe1 promoter, E. coli tEc cells, not purified
T1 sequence (Q9L9X0 1-258): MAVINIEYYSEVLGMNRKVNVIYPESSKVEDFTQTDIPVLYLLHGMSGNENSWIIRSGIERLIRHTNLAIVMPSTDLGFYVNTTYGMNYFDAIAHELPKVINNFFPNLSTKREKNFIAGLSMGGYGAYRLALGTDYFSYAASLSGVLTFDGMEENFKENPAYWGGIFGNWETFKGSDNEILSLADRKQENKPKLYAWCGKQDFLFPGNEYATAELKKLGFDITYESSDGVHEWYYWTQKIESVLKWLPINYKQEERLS

SP_Est = biological target: T2, SP_Est (Streptococcus pneumoniae, UniProt A0A0H2UNZ8); assay: as above; type: cell-based; details: whole-cell culture aliquot, 5 min
T2 construct: gene estA; gene in pBAD24 under tbe1 promoter, E. coli tEc cells, not purified
T2 sequence (A0A0H2UNZ8 1-259): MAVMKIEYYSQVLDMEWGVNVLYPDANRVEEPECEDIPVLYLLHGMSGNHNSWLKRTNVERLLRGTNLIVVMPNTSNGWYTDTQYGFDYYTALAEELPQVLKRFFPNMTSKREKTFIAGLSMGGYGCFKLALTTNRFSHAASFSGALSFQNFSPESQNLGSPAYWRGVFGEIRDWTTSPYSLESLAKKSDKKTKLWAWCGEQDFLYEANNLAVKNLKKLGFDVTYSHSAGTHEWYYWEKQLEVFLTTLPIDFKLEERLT

## CCCC(=O)Oc1ccc([N+](=O)[O-])cc1 [4-nitrophenyl butyrate]
LL_Tbe
  p-nitrophenol release at 400 nm, E. coli tEc cells expressing the gene vs empty: Tbe1 demonstrated almost identical activity to the L. lactis enzyme
SP_Est
  p-nitrophenol release at 400 nm, E. coli tEc cells expressing the gene vs empty: the esterase of S. pneumoniae was the most potent among the four tested enzymes
